Legend:
[1] = test system: SETFA (Setaria faberi, giant foxtail); test: Pre-emergence soil-applied weed control, greenhouse (Example V); format: in vivo, Setaria faberi Herrm.; details: Table 59 (pre-emergence), 25 gai/ha alone
From the text: Seeds or nutlets of the desired test plant species were planted in a soil matrix prepared by mixing a loam soil (32 percent silt, 23 percent clay, and 45 percent sand, with a pH of about 6.5 and an organic matter content of about 1.9 percent) and calcareous grit in an 80 to 20 ratio. The soil matrix was contained in plastic pots with a volume of 1 quart and a surface area of 83.6 square centimeters (cm^2).
Treatments consisted of the benzyl ester of 4-amino-3-chloro-5-fluoro-6-(4-chloro-2-fluoro-3-methoxy-phenyl)pyridine-2-carboxylic acid (compound A) formulated as an SC (suspension concentrate) and various herbicidal components alone and in combination. Forms of compound A were applied on an acid equivalent basis.
Other herbicidal components were applied on an acid equivalent or active ingredient basis and included the acetolactate synthase (ALS)-inhibiting herbicide, flazasulfuron, formulated as Katana®.
(§1) Treatment requirements were calculated based upon the rates being tested, the concentration of active ingredient or acid equivalent in the formulation, and a 12 mL application volume at a rate of 187 L/ha.
For treatments comprised of formulated compounds, measured amounts of compounds were placed individually in 25 mL glass vials and diluted in a volume of 1.25% (v/v) Agri-Dex® crop oil concentrate (COC) to obtain 12× stock solutions. […] Application solutions were prepared by adding an appropriate amount of each stock solution (e.g., 1 mL) and diluted to the appropriate final concentrations with the addition of 10 mL of an aqueous mixture of 1.25% (v/v) COC so that the final spray solutions contained 1.25% (v/v) COC. […]
The treated and control pots were placed in a greenhouse and top watered as needed. […] After approximately 4 weeks, the condition of the test plants as compared with that of the untreated plants was determined visually and scored on a scale of 0 to 100 percent where 0 corresponds to no injury or growth inhibition and 100 corresponds to complete kill. […]

[2] = test system: IPOHE (Ipomoea hederacea, ivyleaf morningglory); test: Postemergence foliar-applied weed control, direct seeded rice, greenhouse (Example I); format: in vivo, Ipomoea hederacea Jacq.; details: 22 DAA
From the text: Seeds or nutlets of the desired test plant species were planted in a soil matrix prepared by mixing a loam or sandy loam soil (e.g., 28.6 percent silt, 18.8 percent clay, and 52.6 percent sand, with a pH of about 5.8 and an organic matter content of about 1.8 percent) and calcareous grit in an 80 to 20 ratio. The soil matrix was contained in plastic pots with a volume of 1 quart and a surface area of 83.6 square centimeters (cm^2). When required to ensure good germination and healthy plants, a fungicide treatment and/or other chemical or physical treatment was applied. The plants were grown for 8-22 days in a greenhouse with an approximate 14 h photoperiod which was maintained at about 29° C. during the day and 26° C. during the night. Nutrients (Peters Excel® 15-5-15 5-Ca 2-Mg and iron chelate) were applied in the irrigation solution as needed and water was added on a regular basis. Supplemental lighting was provided with overhead metal halide 1000-Watt lamps as necessary. The plants were employed for testing when they reached the first through fourth true leaf stage.
Treatments consisted of the acid or esters of 4-amino-3-chloro-5-fluoro-6-(4-chloro-2-fluoro-3-methoxy-phenyl)pyridine-2-carboxylic acid (Compound A), each formulated as an SC, and various herbicidal components alone and in combination. Forms of compound A were applied on an acid equivalent basis.
Other herbicidal components were applied on an active ingredient basis and included acetolactate synthase (ALS)-inhibiting herbicides (sulfonylurea chemical class) azimsulfuron formulated as Gulliver®, bensulfuron-methyl formulated as Londax® 60DF, cyclosulfamuron (technical material), ethoxysulfuron formulated as Sunrice® 15 WDG, flazasulfuron formulated as Katana®, flucetosulfuron formulated as Sukedachi® 1KG G, foramsulfuron formulated as Option®, imazosulfuron formulated as Brazzos® WG, iodosulfuron-methyl-sodium formulated as Hussar®, metsulfuron-methyl formulated as Lorate®, nicosulfuron formulated as Accent®, orthosulfamuron formulated as Strada® WG, primisulfuron-methyl (technical material), propyrisulfuron formulated as Zeta One®, rimsulfuron formulated as Matrix® WG, sulfometuron-methyl formulated as Oust®, and trifloxysulfuron-sodium formulated as Monument® 75WG.
as §1
For treatments comprised of formulated compounds, measured amounts of compounds were placed individually in 25 mL glass vials and diluted in a volume of 1.25% (v/v) Agri-Dex® crop oil concentrated to obtain 12× stock solutions. […] Application solutions were prepared by adding an appropriate amount of each stock solution (e.g., 1 mL) and diluted to the appropriate final concentrations with the addition of 10 mL of an aqueous mixture of 1.25% (v/v) crop oil concentrate so that the final spray solutions contained 1.25+/−0.05% (v/v) Agrcrop oil concentrate.
For treatments comprised of formulated and technical compounds, weighed amounts of the technical materials were placed individually in 25 mL glass vials and dissolved in a volume of 97:3 v/v acetone/DMSO to obtain 12× stock solutions, and measured amounts of the formulated compounds were placed individually in 25 mL glass vials and diluted in a volume of 1.25% (v/v) crop oil concentrate to obtain 12× stock solutions. […] Application solutions were prepared by adding an appropriate amount of each stock solution (e.g., 1 mL) and diluted to the appropriate final concentrations with the addition of an appropriate amount of an aqueous mixture of 1.5% (v/v) crop oil concentrate so that the final spray solutions contained 1.25% (v/v) crop oil concentrate. […]

[3] = test system: LEFCH (Leptochloa chinensis, Chinese sprangletop); test: as above; format: in vivo, Leptochloa chinensis (L.) Nees; details: 22 DAA
In short: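 Greenhouse-grown plants in loam/sandy loam–grit soil (14 h photoperiod, ~29/26 °C) were sprayed postemergence at the first to fourth true leaf stage. Compound A (acid equivalent basis) and ALS-inhibiting sulfonylureas (active ingredient basis) were applied alone and in combination in 1.25% (v/v) crop oil concentrate at 187 L/ha by track sprayer; controls received solvent blank.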

[4] = test system: VERPE (Veronica persica, bird's-eye speedwell); test: Post-emergence foliar-applied weed control in cereal crops, greenhouse (Example III); format: in vivo, Veronica persica Poir.; details: Table 51, after 20-22 days, 10 gai/ha alone
Description: (§2) Seeds of the desired test plant species were planted in Sun Gro MetroMix® 306 planting mixture, which typically has a pH of 6.0 to 6.8 and an organic matter content of about 30 percent, in plastic pots with a surface area of 103.2 square centimeters (cm^2). When required to ensure good germination and healthy plants, a fungicide treatment and/or other chemical or physical treatment was applied. The plants were grown for 7-36 days in a greenhouse with an approximate 14 hour photoperiod which was maintained at about 18° C. during the day and 17° C. during the night. Nutrients and water were added on a regular basis and supplemental lighting was provided with overhead metal halide 1000-Watt lamps as necessary. The plants were employed for testing when they reached the second or third true leaf stage.
(§3) Treatments consisted of the benzyl ester of 4-amino-3-chloro-5-fluoro-6-(4-chloro-2-fluoro-3-methoxy-phenyl)pyridine-2-carboxylic acid (Compound A), formulated as an SC (suspension concentrate), and a second cereal herbicide alone and in combination.
(§4) Measured aliquot of benzyl ester of 4-amino-3-chloro-5-fluoro-6-(4-chloro-2-fluoro-3-methoxy-phenyl)pyridine-2-carboxylic acid (Compound A) was placed in 25 milliliter (mL) glass vials and diluted in a volume of 1.25% (v/v) Agri-dex crop oil concentrated to obtain stock solutions. Compound requirements are based upon a 12 mL application volume at a rate of 187 liters per hectare (L/ha). Spray solutions of the second cereal herbicide and experimental compound mixtures were prepared by adding the stock solutions to the appropriate amount of dilution solution to form 12 mL spray solution with active ingredients in two- and three-way combinations. Formulated compounds were applied to the plant material with an overhead Mandel track sprayer equipped with an 8002E nozzle calibrated to deliver 187 L/ha over an application area of 0.503 square meters (m^2) at a spray height of 18 inches (46 cm) above average plant canopy. Control plants were sprayed in the same manner with the solvent blank.
(§5) The treated plants and control plants were placed in a greenhouse as described above and watered by sub-irrigation to prevent wash-off of the test compounds. After 20-22 days, the condition of the test plants as compared with that of the control plants was determined visually and scored on a scale of 0 to 100 percent where 0 corresponds to no injury and 100 corresponds to complete kill.
(§6) Colby's equation was used to determine the herbicidal effects expected from the mixtures (Colby, S. R. 1967. Calculation of the synergistic and antagonistic response of herbicide combinations. Weeds 15:20-22.).
(§7) The following equation was used to calculate the expected activity of mixtures containing two active ingredients, A and B: Expected=A+B−(A×B/100)

[5] = test system: GALAP (Galium aparine, cleavers); test: as above; format: in vivo, Galium aparine (L.); details: Table 51, after 20-22 days, 10 gai/ha alone
Description: as §2, with “The plants were employed for testing when they reached the second or third true leaf stage.” left out
Measured aliquot of benzyl ester of 4-amino-3-chloro-5-fluoro-6-(4-chloro-2-fluoro-3-methoxy-phenyl)pyridine-2-carboxylic acid (Compound A) was placed in 25 milliliter (mL) glass vials and diluted in a volume of 1.25% (v/v) Agri-dex crop oil concentrated to obtain stock solutions. […]
as §5, with “kill. […]” for “kill.”

[6] = test system: LAMPU (Lamium purpureum, purple deadnettle); test: as above; format: in vivo, Lamium purpureum (L.); details: Table 51, after 20-22 days, 10 gai/ha alone
Description: as §2, §3, §4, §5, §6, §7

COc1cc(OC)nc(NC(=O)NS(=O)(=O)c2ncccc2C(F)(F)F)n1 [Flazasulfuron, N-[[(4,6-dimethoxy-2-pyrimidinyl)amino]carbonyl]-3-(trifluoromethyl)-2-pyridinesulfonamide, reference compound]
Visual Weed Control (%) - 27 DAA SETFA Obs [1]: 62%
Visual Weed Control Obs ([2]; 50 gai/ha): 50%
Visual Weed Control (%) Obs ([2]; 100 gai/ha): 50%
Visual Weed Control Obs ([2]; 100 gai/ha): 50%
Visual Weed Control Obs ([3]; 25 gai/ha): 0%
Visual Weed Control Obs ([3]; 50 gai/ha): 10%

COc1cc(OC)nc(NC(=O)NS(=O)(=O)N(C)S(C)(=O)=O)n1 [Amidosulfuron]
Weed Control VERPE Obs [4]: 0%
Weed Control GALAP Obs [5]: 48%
Weed Control LAMPU Obs [6]: 0%
